Data as given in patent publication US8415469B2, “Compounds and methods for kinase modulation, and indications therefor” (Plexxikon Inc., priority 2005, dated 2013).

How the values were obtained:
Format in all cases: biochemical
B-Raf = target: T1, B-Raf (Homo sapiens, UniProt P15056); assay: AlphaScreen kinase assay, B-Raf; conditions: read-out: IC50, activity toward kinase B-Raf
T1 construct: purchased Upstate Biotechnology

B-Raf V600E = target: T2, B-Raf V600E (Homo sapiens, UniProt P15056, V600E); assay: AlphaScreen kinase assay, B-Raf V600E; conditions: read-out: IC50, activity toward kinase B-Raf V600E
T2 construct: P4254. pFastBacBD-CDC37 BRAF D437-K722-X, V600E; His6 with pFastBac HT leader (TEV site) (N); made in house; host or cells: Sf9 (baculovirus; chaperone CDC37 co-expressed)

Fms = target: T3, Fms (Homo sapiens, UniProt P07333); assay: AlphaScreen kinase assay, Fms; conditions: read-out: IC50, activity toward kinase Fms
T3 construct: purchased Upstate Biotechnology

Kit = target: T4, Kit (Homo sapiens, UniProt P10721); assay: AlphaScreen kinase assay, Kit; conditions: read-out: IC50, activity toward kinase Kit
T4 construct: P1332.N6 BI PTP KIT M552-K948-X COD; His6 (N); made in house; host or cells: E. coli (PTP1B co-expressed)

FGFR1 = target: T5, FGFR1 (Homo sapiens, UniProt P11362, C488A/C584S); assay: AlphaScreen kinase assay, FGFR1; conditions: read-out: IC50, activity toward kinase FGFR
T5 construct: P1351.pET N6 BI-PTP FGFR A458-E765-X C488A, C584S; made in house; host or cells: E. coli (PTP1B co-expressed)
T5 sequence (P11362 458-765 C488A/C584S): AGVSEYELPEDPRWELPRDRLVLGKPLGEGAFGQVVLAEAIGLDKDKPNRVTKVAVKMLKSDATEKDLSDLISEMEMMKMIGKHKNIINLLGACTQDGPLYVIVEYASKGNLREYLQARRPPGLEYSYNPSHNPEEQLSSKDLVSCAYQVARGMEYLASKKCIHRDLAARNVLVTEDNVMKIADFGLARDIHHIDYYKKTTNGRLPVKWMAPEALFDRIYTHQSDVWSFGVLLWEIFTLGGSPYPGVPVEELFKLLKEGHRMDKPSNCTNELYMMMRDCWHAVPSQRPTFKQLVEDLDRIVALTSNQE

T4 sequence (P10721 with tags, fused parts or gaps): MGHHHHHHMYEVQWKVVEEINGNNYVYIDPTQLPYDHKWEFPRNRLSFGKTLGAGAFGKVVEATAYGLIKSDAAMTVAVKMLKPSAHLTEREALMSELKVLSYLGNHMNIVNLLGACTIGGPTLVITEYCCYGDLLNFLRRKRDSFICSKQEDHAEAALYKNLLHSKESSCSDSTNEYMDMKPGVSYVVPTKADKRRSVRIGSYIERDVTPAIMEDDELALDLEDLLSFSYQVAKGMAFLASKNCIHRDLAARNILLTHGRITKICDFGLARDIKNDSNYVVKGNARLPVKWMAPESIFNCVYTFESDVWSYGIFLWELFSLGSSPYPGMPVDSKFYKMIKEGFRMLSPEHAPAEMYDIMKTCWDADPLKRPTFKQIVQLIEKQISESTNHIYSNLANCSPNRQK
T1 sequence (P15056 whole entry): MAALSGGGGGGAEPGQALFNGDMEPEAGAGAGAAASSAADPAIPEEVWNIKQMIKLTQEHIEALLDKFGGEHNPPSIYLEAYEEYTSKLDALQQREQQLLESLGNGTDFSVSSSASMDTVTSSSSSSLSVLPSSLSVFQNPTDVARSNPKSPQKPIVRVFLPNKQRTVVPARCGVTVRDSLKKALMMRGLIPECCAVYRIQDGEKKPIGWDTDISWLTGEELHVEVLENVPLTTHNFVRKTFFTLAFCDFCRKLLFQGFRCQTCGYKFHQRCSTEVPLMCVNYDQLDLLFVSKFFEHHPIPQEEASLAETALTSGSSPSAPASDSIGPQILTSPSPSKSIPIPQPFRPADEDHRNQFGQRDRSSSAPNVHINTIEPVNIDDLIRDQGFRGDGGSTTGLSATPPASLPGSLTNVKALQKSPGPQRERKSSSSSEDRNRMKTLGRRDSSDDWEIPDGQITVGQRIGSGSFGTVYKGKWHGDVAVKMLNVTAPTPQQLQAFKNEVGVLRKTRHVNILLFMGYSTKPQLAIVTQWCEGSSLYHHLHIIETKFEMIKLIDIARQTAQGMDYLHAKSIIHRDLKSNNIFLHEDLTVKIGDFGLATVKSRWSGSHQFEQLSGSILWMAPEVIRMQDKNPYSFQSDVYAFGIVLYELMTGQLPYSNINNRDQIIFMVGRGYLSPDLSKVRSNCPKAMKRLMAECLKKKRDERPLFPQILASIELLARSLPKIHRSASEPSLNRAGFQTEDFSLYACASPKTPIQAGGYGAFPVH
T2 sequence (P15056 with tags, fused parts or gaps V600E): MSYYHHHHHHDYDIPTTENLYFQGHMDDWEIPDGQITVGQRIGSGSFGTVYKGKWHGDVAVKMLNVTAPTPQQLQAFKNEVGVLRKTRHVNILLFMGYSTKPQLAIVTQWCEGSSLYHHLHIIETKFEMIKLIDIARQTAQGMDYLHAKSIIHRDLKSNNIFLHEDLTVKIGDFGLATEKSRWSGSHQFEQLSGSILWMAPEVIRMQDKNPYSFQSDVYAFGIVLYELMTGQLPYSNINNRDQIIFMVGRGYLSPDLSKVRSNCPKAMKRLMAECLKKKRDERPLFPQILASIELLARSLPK
T3 sequence (P07333 20-972): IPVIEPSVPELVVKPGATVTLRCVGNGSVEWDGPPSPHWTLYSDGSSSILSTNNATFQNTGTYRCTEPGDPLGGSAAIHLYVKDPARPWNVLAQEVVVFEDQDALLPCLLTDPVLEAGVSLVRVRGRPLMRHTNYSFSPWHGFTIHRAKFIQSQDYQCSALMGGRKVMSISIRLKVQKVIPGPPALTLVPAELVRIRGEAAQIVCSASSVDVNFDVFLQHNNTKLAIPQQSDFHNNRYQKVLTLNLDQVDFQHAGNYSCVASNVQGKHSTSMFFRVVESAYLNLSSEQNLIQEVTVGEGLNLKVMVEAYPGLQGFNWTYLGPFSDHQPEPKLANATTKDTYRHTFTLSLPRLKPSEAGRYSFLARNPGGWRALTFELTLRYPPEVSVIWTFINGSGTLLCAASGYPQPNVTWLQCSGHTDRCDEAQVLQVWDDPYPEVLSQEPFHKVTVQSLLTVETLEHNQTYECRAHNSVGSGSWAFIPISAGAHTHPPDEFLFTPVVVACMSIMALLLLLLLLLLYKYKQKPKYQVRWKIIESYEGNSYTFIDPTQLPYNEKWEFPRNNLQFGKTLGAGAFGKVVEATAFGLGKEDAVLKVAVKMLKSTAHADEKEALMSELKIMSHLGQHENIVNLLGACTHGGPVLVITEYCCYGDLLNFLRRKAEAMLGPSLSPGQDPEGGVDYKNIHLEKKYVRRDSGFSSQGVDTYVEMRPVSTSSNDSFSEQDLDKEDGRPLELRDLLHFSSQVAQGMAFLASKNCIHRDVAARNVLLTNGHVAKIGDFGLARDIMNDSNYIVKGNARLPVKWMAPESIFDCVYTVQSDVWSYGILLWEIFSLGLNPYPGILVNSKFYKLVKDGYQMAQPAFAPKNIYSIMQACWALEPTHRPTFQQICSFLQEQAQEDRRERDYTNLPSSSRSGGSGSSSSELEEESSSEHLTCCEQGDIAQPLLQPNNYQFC

| IC50 (B-Raf) | IC50 (B-Raf V600E) | IC50 (Fms) | IC50 (Kit) | IC50 (FGFR1) | Structure (SMILES) |
| --- | --- | --- | --- | --- | --- |
| ≤ 10 µM | ≤ 10 µM | ≤ 10 µM |  |  | Cc1cccc(NC(=O)Nc2cccc(C(=O)c3c[nH]c4ncc(-c5ccc(F)cc5)cc34)c2)c1 [Compound P-1758, 1-{3-[5-(4-Fluoro-phenyl)-1H-pyrrolo[2,3-b]pyridine-3-carbonyl]-phenyl}-3-m-tolyl-urea] |
| ≤ 10 µM | ≤ 10 µM | ≤ 10 µM |  |  | COc1ccc(NC(=O)Nc2cccc(C(=O)c3c[nH]c4ncccc34)c2)cn1 [Compound P-1763, 1-(6-Methoxy-pyridin-3-yl)-3-[3-(1H-pyrrolo[2,3-b]pyridine-3-carbonyl)-phenyl]-urea] |
| ≤ 10 µM | ≤ 10 µM | ≤ 10 µM |  |  | O=C(c1c(F)ccc(NS(=O)(=O)c2ccc(OC(F)F)cc2)c1F)c1c[nH]c2ncc(Cl)cc12 [Compound P-1916, N-[3-(5-Chloro-1H-pyrrolo[2,3-b]pyridine-3-carbonyl)-2,4-difluoro-phenyl]-4-difluoromethoxy-benzenesulfonamide] |
| ≤ 10 µM | ≤ 10 µM | ≤ 10 µM |  |  | COc1ccc(NC(=O)Nc2cccc(C(=O)c3c[nH]c4ncc(Cl)cc34)c2)cc1 [Compound P-1734, 1-[3-(5-Chloro-1H-pyrrolo[2,3-b]pyridine-3-carbonyl)-phenyl]-3-(4-methoxy-phenyl)-urea] |
| ≤ 10 µM | ≤ 10 µM | ≤ 10 µM |  |  | O=C(Nc1cccnc1)Nc1cccc(C(=O)c2c[nH]c3ncc(Cl)cc23)c1 [Compound P-1771, 1-[3-(5-Chloro-1H-pyrrolo[2,3-b]pyridine-3-carbonyl)-phenyl]-3-pyridin-3-yl-urea] |
| ≤ 10 µM | ≤ 10 µM | ≤ 10 µM |  |  | CN(C)c1ccc(NC(=O)Nc2cccc(C(=O)c3c[nH]c4ncc(Cl)cc34)c2)cc1 [Compound P-1782, 1-[3-(5-Chloro-1H-pyrrolo[2,3-b]pyridine-3-carbonyl)-phenyl]-3-(4-dimethylamino-phenyl)-urea] |
| ≤ 10 µM |  |  | ≤ 10 µM |  | O=C(c1c(F)ccc(NS(=O)(=O)c2ccsc2)c1F)c1c[nH]c2ncc(Cl)cc12 [Compound P-1268, Thiophene-3-sulfonic acid [3-(5-chloro-1H-pyrrolo[2,3-b]pyridin-3-carbonyl)-2,4-difluoro-phenyl]-amide] |
| ≤ 10 µM | ≤ 10 µM | ≤ 10 µM |  |  | COCCNC(=O)Nc1cccc(C(=O)c2c[nH]c3ncc(Cl)cc23)c1 [Compound P-1772, 1-[3-(5-Chloro-1H-pyrrolo[2 3-b]pyridine-3-carbonyl)-phenyl]-3-(2-methoxy-ethyl)-urea] |
| ≤ 10 µM | ≤ 10 µM | ≤ 10 µM |  |  | O=C(c1cc(NS(=O)(=O)c2cccc(F)c2)ccc1F)c1c[nH]c2ncc(Cl)cc12 [Compound P-1665] |
| ≤ 10 µM | ≤ 10 µM |  | ≤ 10 µM |  | O=C(c1c(F)ccc(NS(=O)(=O)c2ccc(F)cc2)c1F)c1c[nH]c2ncccc12 [Compound P-1865, N-[2,4-Difluoro-3-(1H-pyrrolo[2,3-b]pyridine-3-carbonyl)-phenyl]-4-fluoro-benzenesulfonamide] |
| ≤ 10 µM | ≤ 10 µM | ≤ 10 µM |  |  | O=C(Nc1cccc(F)c1)Nc1cccc(C(=O)c2c[nH]c3ncc(-c4ccc(F)cc4)cc23)c1 [Compound P-1819, 1-(3-Fluoro-phenyl)-3-{3-[5-(4-fluoro-phenyl)-1H-pyrrolo[2,3-b]pyridine-3-carbonyl]-phenyl}-urea] |
| ≤ 10 µM | ≤ 10 µM | ≤ 10 µM |  |  | COC(=O)c1ccc(S(=O)(=O)Nc2ccc(F)c(C(=O)c3c[nH]c4ncc(Cl)cc34)c2F)o1 [Compound P-1907, 5-[3-(5-Chloro-1H-pyrrolo[2,3-b]pyridine-3-carbonyl)-2,4-difluoro-phenylsulfamoyl]-furan-2-carboxylic acid methyl ester] |
| ≤ 10 µM |  |  | ≤ 10 µM | ≤ 10 µM | COc1cccc(Cc2c[nH]c3ncc(Br)cc23)c1 [Compound P-0556] |
| ≤ 10 µM | ≤ 10 µM | ≤ 10 µM |  |  | O=C(c1c(F)ccc(NS(=O)(=O)c2ccccc2F)c1F)c1c[nH]c2ncc(Cl)cc12 [Compound P-1912, N-[3-(5-Chloro-1H-pyrrolo[2,3-b]pyridine-3-carbonyl)-2,4-difluoro-phenyl]-2-fluoro-benzenesulfonamide] |
| ≤ 10 µM | ≤ 10 µM | ≤ 10 µM |  |  | O=C(Nc1cccc(Cl)c1)Nc1cccc(C(=O)c2c[nH]c3ncccc23)c1 [Compound P-1710, 1-(3-Chloro-phenyl)-3-[3-(1H-pyrrolo[2,3-b]pyridine-3-carbonyl)-phenyl]-urea] |
| ≤ 10 µM | ≤ 10 µM | ≤ 10 µM |  |  | CCCS(=O)(=O)Nc1ccc(F)c(C(=O)c2c[nH]c3ncc(-c4nc(C)c[nH]4)cc23)c1F [Compound P-2006, Propane-1-sulfonic acid {2,4-difluoro-3-[5-(4-methyl-1H-imidazol-2-yl)-1H-pyrrolo[2,3-b]pyridine-3-carbonyl]-phenyl}-amide] |
| ≤ 10 µM | ≤ 10 µM | ≤ 10 µM |  |  | COc1cc(NC(=O)Nc2cccc(C(=O)c3c[nH]c4ncccc34)c2)cc(C(F)(F)F)c1 [Compound P-1762, 1-(3-Methoxy-5-trifluoromethyl-phenyl)-3-[3-(1H-pyrrolo[2,3-b]pyridine-3-carbonyl)-phenyl]-urea] |
| ≤ 10 µM | ≤ 10 µM |  |  | ≤ 10 µM | CCCS(=O)(=O)Nc1ccc(F)c(C(=O)c2c[nH]c3ncc(CCC(=O)O)cc23)c1F [Compound P-1270, 3-3-[2,6-difluoro-3-(propane-1-sulfonylamino)-benzoyl]-1H-pyrrolo[2,3-b]pyridin-5-yl-propionic acid] |
| ≤ 10 µM | ≤ 10 µM |  |  | ≤ 10 µM | CCCS(=O)(=O)Nc1cccc(C(=O)c2c[nH]c3ncc(Br)cc23)c1 [Compound P-1116, propane-1-sulfonic acid [3-(5-bromo-1H-pyrrolo[2,3-b]pyridin-3-carbonyl)-phenyl]-amide] |
| ≤ 10 µM | ≤ 10 µM |  |  |  | Cc1ccc(S(=O)(=O)Nc2ccc(F)c(C(=O)c3c[nH]c4ncc(Cl)cc34)c2F)cc1F [Compound P-1823, N-[3-(5-Chloro-1H-pyrrolo[2,3-b]pyridine-3-carbonyl)-2,4-difluoro-phenyl]-3-fluoro-4-methyl-benzenesulfonamide] |
| ≤ 10 µM | ≤ 10 µM |  |  |  | O=C(c1c(F)ccc(NS(=O)(=O)c2cc(F)cc(F)c2)c1F)c1c[nH]c2ncc(Cl)cc12 [Compound P-1841, N-[3-(5-chloro-1H-pyrrolo[2,3-b]pyridine-3-carbonyl)-2,4-difluoro-phenyl]-3,5-difluorobenzenesulfonamide] |
| ≤ 10 µM | ≤ 10 µM |  |  |  | Oc1cccc(Nc2ccnc3[nH]ccc23)c1 [Compound P-0980] |
| ≤ 10 µM | ≤ 10 µM |  |  | ≤ 10 µM | O=S(=O)(Nc1ccc(F)c(C(O)c2c[nH]c3ncc(Cl)cc23)c1F)c1ccc(C(F)(F)F)cc1 (stereo not shown) [Compound P-1539] |
| ≤ 10 µM | ≤ 10 µM |  |  |  | CC(C)(C)OC(=O)N(Cc1ccc(Cl)cc1)c1ccc(C(O)c2c[nH]c3ncc(-c4cccnc4)cc23)cn1 (stereo not shown) [Compound P-0414] |
